Among the data in paper PMC10573752, “New Benzamides as Multi-Targeted Compounds: A Study on Synthesis, AChE and BACE1 Inhibitory Activity and Molecular Docking” (International Journal of Molecular Sciences, 2023) are IC50 and Ki values, retold here.

For test [1], the target named is T1, BACE1 (Homo sapiens, UniProt P56817).
T1 construct: purchased Sigma-Aldrich CS0010
Nature of the test: In vitro β-secretase (BACE1) activity assay kit (fluorescence). The class given is biochemical, equine.

Test [2] addresses T2, AChE from Electrophorus electricus (electric eel) (Electrophorus electricus, UniProt O42275).
T2 construct: purchased Sigma-Aldrich C3389
The test is described as follows: biochemical. The following applies: mean ± SD of three independent experiments.

In a further test the test system is AChE. The following applies: cited from earlier work.
Test [3] deals with BACE1. The following applies: cited from earlier work.
The next test has as its system BACE-1. The following applies: cited from earlier work.
The test system of a further test is human AChE. The settings on record: cited from earlier work.
The next test has as its system BuChE. The following applies: cited from earlier work.
The target of a further test is hBuChE. Also noted: method as in PMID 23041347. The following applies: cited from earlier work.

Where two headings read alike, the source gives them in different places.

T1 sequence (P56817 46-457 limits assumed): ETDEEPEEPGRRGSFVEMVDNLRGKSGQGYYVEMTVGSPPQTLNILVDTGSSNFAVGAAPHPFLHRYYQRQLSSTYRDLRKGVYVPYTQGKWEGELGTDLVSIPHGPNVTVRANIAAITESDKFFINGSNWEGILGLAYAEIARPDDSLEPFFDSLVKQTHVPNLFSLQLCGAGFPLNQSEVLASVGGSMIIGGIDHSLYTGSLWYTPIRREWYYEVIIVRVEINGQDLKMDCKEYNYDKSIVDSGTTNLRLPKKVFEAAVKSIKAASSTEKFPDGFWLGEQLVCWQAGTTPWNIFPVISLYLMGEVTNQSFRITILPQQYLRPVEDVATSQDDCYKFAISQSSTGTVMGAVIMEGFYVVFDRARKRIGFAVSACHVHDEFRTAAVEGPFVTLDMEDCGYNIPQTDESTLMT
T2 sequence (O42275 24-633): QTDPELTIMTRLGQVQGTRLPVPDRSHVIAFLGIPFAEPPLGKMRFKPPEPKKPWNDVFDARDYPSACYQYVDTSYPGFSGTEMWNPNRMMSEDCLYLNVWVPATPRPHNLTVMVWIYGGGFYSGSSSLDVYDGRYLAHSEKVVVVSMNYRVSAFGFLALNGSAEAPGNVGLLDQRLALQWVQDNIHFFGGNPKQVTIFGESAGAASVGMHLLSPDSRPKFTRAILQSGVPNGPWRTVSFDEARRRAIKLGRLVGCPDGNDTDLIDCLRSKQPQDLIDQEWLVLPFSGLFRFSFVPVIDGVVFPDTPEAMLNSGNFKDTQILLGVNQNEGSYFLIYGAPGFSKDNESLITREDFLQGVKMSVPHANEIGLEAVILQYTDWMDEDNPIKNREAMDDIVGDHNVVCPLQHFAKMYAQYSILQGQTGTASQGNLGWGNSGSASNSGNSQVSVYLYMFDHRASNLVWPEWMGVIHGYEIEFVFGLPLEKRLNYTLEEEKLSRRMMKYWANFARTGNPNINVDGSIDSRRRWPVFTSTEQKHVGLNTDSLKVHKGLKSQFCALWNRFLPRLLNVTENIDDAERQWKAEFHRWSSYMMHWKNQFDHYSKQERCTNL

`COc1cc(OC)cc(C(=O)Nc2cccc(NC(=O)c3cc(OC)cc(OC)c3)c2)c1` [JW2, N,N′-(1,3-phenylene)bis(3,5-dimethoxybenzamide)]: the IC50 was 74000 ± 1610 nM against BACE1 [1] and 2570 ± 63 nM in test [2]. In the same order, the values of `COc1cc(OC)cc(C(=O)Nc2ccc(NC(=O)c3cc(OC)cc(OC)c3)cc2)c1` [JW6, N,N′-(1,4-phenylene)bis(3,5-dimethoxybenzamide)] are 16700 ± 250 nM and 190 ± 33 nM. Turning to `OC(CNCc1cccc(COc2ccccc2)c1)Cn1cc(Br)c2cc(Br)ccc21` (centres unmarked) [compound IX], the IC50 is 9100 nM with AChE (read-out: AChE IC50) and 2500 nM in the test on BACE1 [3] (read-out: BACE-1 IC50). As for `CN(C)CCOc1ccc(NC(=O)c2ccccn2)cc1` [Compound V], the IC50 in the test on AChE (read-out: AChE inhibitory activity IC50) is 2490 ± 190 nM. As to `COc1cc(C(=O)Nc2cccc([N+](=O)[O-])c2)cc(OC)c1OC` [MB1, 3,4,5-trimethoxy-N-(3-nitrophenyl)benzamide], the IC50 was 40500 ± 2200 nM at BACE1 [1] and 670 ± 8 nM in test [2]. As for `COc1ccc(CNC(=O)C2CCN(C(=O)c3ccccc3)CC2)cc1OC` [compound X], the IC50 in the test on BACE-1 (in humans, read-out: BACE-1 IC50) was 18.3 nM; in the test on human AChE (in humans, read-out: AChE IC50) it was 4.11 nM. `COc1cc(NC(=O)c2cc(OC)c(OC)c(OC)c2)cc(OC)c1OC` [MB3, 3,4,5-trimethoxy-N-(3,4,5-trimethoxyphenyl)benzamide]: the results for the IC50 (on BACE1 [1]; in test [2]) were 20200 ± 5130 nM and 110 ± 78 nM, respectively. As for `O=C(NCc1cc(Cl)cc(Cl)c1)c1cc(Br)ccc1O` [compound VI], in the test on AChE (read-out: inhibitory potency of AChE activity), the IC50 is 33100 ± 470 nM.

For the compound `CCN(CC)Cc1ccccc1CNC(=O)c1cc(C)cc(CC(=O)c2ccc(F)cc2)c1` [IV], the IC50 with BuChE (read-out: BChE IC50) was 0.039 nM.

For the compound `CC(=O)c1ccccc1NC(=O)c1ccc(OCCCCC[n+]2ccccc2)cc1` [compound XI], the Ki on human AChE (read-out: hAChE Ki) is 81 nM; at hBuChE it was 93 nM. In addition, the IC50 with BACE1 [3] was 310 nM. With `COc1cccc(C(=O)Nc2cccc(NC(=O)c3cccc(OC)c3)c2)c1` [JW4, N,N′-(1,3-phenylene)bis(3-methoxybenzamide)], the values for the IC50 (against BACE1 [1]; in test [2]) were 81400 ± 4110 nM and 1200 ± 13 nM, respectively. As to `O=C(NCCCCCCCCCCNc1c2c(nc3ccccc13)CCCC2)c1cc(=O)c2cc(O)ccc2o1` [Molecule VIII], the IC50 was 2800 nM in the test on BACE-1 (read-out: IC50 for BACE-1) and 8 nM in the test on human AChE (human AChE, read-out: IC50 for AChE). `COc1ccc(C(=O)Nc2nc(CN(C)Cc3ccccc3)cs2)cc1` [substance II]: the IC50 is 1470 nM in the test on AChE (read-out: AChE IC50) and 11400 nM in the test on BuChE (read-out: BuChE IC50). `COc1cc(CNC(=O)c2cc(OC)c(OC)c(OC)c2)cc(OC)c1OC` [MB4, 3,4,5-trimethoxy-N-(3,4,5-trimethoxybenzyl)benzamide]: the IC50 at BACE1 [1] turned out to be 87700 ± 6220 nM; in test [2], 1170 ± 15 nM.

For the compound `COc1cccc(C(=O)Nc2ccc(NC(=O)c3cccc(OC)c3)cc2)c1` [JW8, N,N′-(1,4-phenylene)bis(3-methoxybenzamide)], the IC50 was 9010 ± 280 nM on BACE1 [1] and 56 ± 43 nM in test [2]. As to `COc1ccc(C(=O)N(Cc2ccc(Cl)cc2)c2cccc(Br)c2)cc1OC` [compound I], the values for the IC50 in the test with AChE (read-out: AChE IC50) and in the test on BuChE (read-out: BuChE IC50) were 1570 nM and 2850 nM, respectively. Regarding `C[C@@H](NC(=O)c1cccc(C(=O)N[C@@H](c2ccccc2)[C@H](O)CNCCC2CCN(Cc3ccccc3)CC2)c1)c1ccccc1` [Derivative VII], the IC50 is 1830 nM in the test with AChE (read-out: AChE IC50) and 570 nM in the test on BACE1 [3]. With `COc1cc(C(=O)Nc2ccc(NC(=O)c3cc(OC)c(OC)c(OC)c3)cc2)cc(OC)c1OC` [JW5, N,N′-(1,4-phenylene)bis(3,4,5-trimethoxybenzamide)], the IC50 against BACE1 [1] came to 9290 ± 3020 nM; in test [2], 68 ± 58 nM. For the compound `COc1ccc(C(=O)Nc2ccc(NC(=O)c3ccc(OC)c(OC)c3)cc2)cc1OC` [JW7, N,N′-(1,4-phenylene)bis(3,4-dimethoxybenzamide)], the IC50 amounted to 12800 ± 230 nM at BACE1 [1] and 70 ± 3 nM in test [2]. On to `CCN(CC)Cc1ccccc1CNC(=O)c1cccc(CC(=O)c2ccc(F)cc2)c1` [III], for which, in the test with BuChE (read-out: BChE IC50), the IC50 was 0.08 nM.

As for `COc1ccc(C(=O)Nc2cccc(NC(=O)c3ccc(OC)c(OC)c3)c2)cc1OC` [JW3, N,N′-(1,3-phenylene)bis(3,4-dimethoxybenzamide)], the figures for the IC50 (on BACE1 [1]; in test [2]) were 40200 ± 8120 nM and 410 ± 28 nM, respectively.

In the case of `COc1cc(C(=O)Nc2cccc(NC(=O)c3cc(OC)c(OC)c(OC)c3)c2)cc(OC)c1OC` [JW1, N,N′-(1,3-phenylene)bis(3,4,5-trimethoxybenzamide)], the IC50 against BACE1 [1] was 54400 ± 1300 nM; in test [2] it was 770 ± 18 nM.

In general, Ki refers to a measure of affinity in units of concentration, obtained from inhibition or displacement.
